# Data reported in paper PMC4939023, “Efficacy of delayed treatment of China-made Peramivir with repeated intravenous injections in a mouse influenza model: from clinical experience to basal experiment” (BMC Infectious Diseases, 2016).
# “And” between values parts separate entries of the source, which are not always exact repeats. Identical values can stand only once. “Also recorded” adds a separate entry of the source. Like-named read-outs stand apart in the source and are kept apart here.
# Experiments:
# [1] = mouse, in vivo
# [2] = cited from earlier work
# [3] = tested on: Influenza B (B/Guangzhou/GIRD08/09); parameters: species or system BALB/C mice; details: mouse, in vivo
# influenza [4] = details: given as late as 60 h after infection; cited from earlier work
# influenza [5] = details: cited from earlier work
# [6] = tested on: Influenza A H1N1pdm2009 (A/GZ/GIRD07/09, H1N1); parameters: species or system BALB/C mice; details: mouse, in vivo
# H7N9 = tested on: H7N9; parameters: species or system human patients; details: human, in vivo
# [7] = oral administration; no reference given; cited from earlier work
# influenza virus = details: repeated intravenous injections for 5 days, patients at high risk of complications; cited from earlier work
# influenza A/H1N1 = details: cited from earlier work; for weight loss and mortality: single intramuscular injection 10 mg/kg, mice infected with influenza A/H1N1
# [8] = tested on: Influenza A H1N1pdm2009 (A/GZ/GIRD07/09, H1N1); parameters: species or system BALB/C mice; details: mouse, in vivo; remark: listed apart in the source
# [9] = tested on: influenza A (H1N1) 2009 virus; details: cited from earlier work
# [10] = tested on: Influenza A H1N1pdm2009 (A/GZ/GIRD07/09, H1N1); parameters: species or system BALB/C mice; details: mouse, in vivo; remark: listed apart in the source
smiles,measurement,setting,value
CCC(CC)[C@H](NC(C)=O)[C@@H]1[C@H](O)[C@@H](C(=O)O)C[C@H]1N=C(N)N [Peramivir],concentration in the blood of virus-infected mice compared with normal mice,[1],no significant differences
same,toxicity or side effects,[2]; 1000 mg/kg·d administered for 5 days,no signs of toxicity or side effects
same,toxicity or side effects,[2]; doses as high as 3000 mg/kg·d administered as a single dose,no signs of toxicity or side effects
same,lung index vs virus group,[3],improved
same,prevention of death,influenza [4],able to prevent death
same,in vitro activity relative to Oseltamivir carboxylate and Zanamivir,influenza [5],"comparable to, or better than"
same,lung virus titer vs virus group,[6],reduced lung virus titers
same,Clinical outcome,H7N9,Survival; also recorded: Death
same,treatment efficacy in H7N9 patients,H7N9,a degree of treatment efficacy; also recorded: some treatment efficacy
same,oral bioavailability,[7],≤ 3%
same,clinical effect,influenza virus,beneficial effects
same,safety,influenza virus,no major safety issues
same,prevention of death,influenza A/H1N1; single intramuscular dose 10 mg/kg administered at 24 or 48 h p.i.,prevented death
same,weight loss and mortality,influenza A/H1N1,significantly reduces weight loss and mortality
same,efficacy of delayed treatment (survival rate) vs virus group,[8],efficacy was observed
same,efficacy of delayed treatment (survival),[8],no efficacy
same,mean number of days to death,[8],> 15 days
same,survival rate,[8],100% and 80% and 70%
same,survival rate vs virus group,[8],enhanced
same,difference in weight loss suppression compared with the virus group,"[8]; iv, 60 mg/kg",about 9%
same,weight loss suppression compared with the virus group,"[8]; iv, 60 mg/kg",significant weight loss suppression
same,survival rates and viral titers in the lungs,"[9]; 40 mg/kg·d i.v. QD x 20 days starting at 24, 48 or 72 h p.i.",increased survival rates and reduced viral titers in the lungs
same,drug-related toxicity,[9]; repeated intravenous injections 40 mg/kg·d for 20 days,no obvious signs of drug-related toxicity
same,lung index vs virus group,[10],improvement
CC(=O)N[C@H]1[C@H]([C@H](O)[C@H](O)CO)OC(C(=O)O)=C[C@@H]1N=C(N)N [Zanamivir],Clinical outcome,H7N9,Death; also recorded: Survival
CCOC(=O)C1=C[C@@H](OC(CC)CC)[C@H](NC(C)=O)[C@@H](N)C1 [Oseltamivir],lung virus titer vs virus group,[6],reduced
same,Clinical outcome,H7N9,Survival; also recorded: Death
same,weight loss and mortality,influenza A/H1N1,no efficacy
same,efficacy of delayed treatment (survival),[8],no efficacy
